According to patent US20240034729A9, “HETEROCYCLIC COMPOUND, INTERMEDIATE, PREPARATION METHOD THEREFOR AND APPLICATION THEREOF” (WUHAN LL SCIENCE AND TECHNOLOGY DEVELOPMENT CO., LTD., priority 2018, published 2024):
Where two headings read alike, the source gives them in different places.

Molecular target: hP2X3 (human purinergic P2X receptor subtype 3) (Homo sapiens (Human), UniProt P56373)
Experiment: FLIPR calcium assay, hP2X3 expressed in HEK293 cells
Type: cell-based
Conditions: read-out: P2X3 IC50
[1] = HEK293 cells expressing hP2X3, agonist BZ-ATP 2.5 μM, class symbols

hP2X3 (human purinergic P2X receptor subtype 3), sequence (P56373 whole entry): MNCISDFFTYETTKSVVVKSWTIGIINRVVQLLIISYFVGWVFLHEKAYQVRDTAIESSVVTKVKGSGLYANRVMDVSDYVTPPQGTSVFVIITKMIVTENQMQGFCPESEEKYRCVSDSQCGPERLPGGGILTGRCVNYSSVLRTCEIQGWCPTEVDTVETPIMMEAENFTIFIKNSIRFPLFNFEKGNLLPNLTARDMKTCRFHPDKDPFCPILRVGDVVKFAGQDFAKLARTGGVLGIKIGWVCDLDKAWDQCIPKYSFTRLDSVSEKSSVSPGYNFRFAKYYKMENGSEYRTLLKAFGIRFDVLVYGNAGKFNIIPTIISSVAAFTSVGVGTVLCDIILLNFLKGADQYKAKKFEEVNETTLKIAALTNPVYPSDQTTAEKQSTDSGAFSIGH

| Structure (SMILES) | IC50 [nM] | IC50 [1] [nM] |
| --- | --- | --- |
| COC(=O)N1CCO[C@@H](Cc2c(-c3c(F)cc(NC(=O)CC4(C#N)CC4)cc3F)nc3cc(C)ccn23)C1 [Compound 96] | 10 to 50 |  |
| CCC(=O)N1CCO[C@@H](Cc2c(-c3c(F)cc(NC(C)=O)cc3F)nc3cc(C(F)F)ccn23)C1 [Compound 157] | < 10 |  |
| CNC(=O)c1cc(F)c(-c2oc3cc(C)ncc3c2C[C@H]2CN(C(=O)OC)CCO2)c(F)c1 [Compound 55, methyl (S)-2-((2-(2,6-difluoro-4-(methylcarbamoyl)phenyl)-6-methylfurano[3,2-c]pyridin-3-yl)methyl)morpholine-4-carboxylate] | < 10 |  |
| COC(=O)N1CCO[C@@H](Cc2c(-c3c(F)cc(NC(=O)CC(C)(C)C(=O)O)cc3F)nc3cc(C)ccn23)C1 [Compound 91] | < 10 |  |
| Cc1ccn2c(Cc3cc(C#N)ccn3)c(-c3c(F)cc(S(N)(=O)=O)cc3F)nc2c1 [Compound 186] | 65 |  |
| COC(=O)N1CCO[C@@H](Cc2c(-c3c(F)cc(-n4cnc(C(F)(F)F)c4)cc3F)nc3cc(C)ccn23)C1 [Compound 109, methyl (S)-2-((2-(2,6-difluoro-4-(4-trifluoromethyl-1H-imidazol-1-yl)phenyl)-7-methylimidazo[1,2-a]pyridin-3-yl)methyl)morpholine-4-carboxylate] | 50 to 200 |  |
| COC(=O)N1CCO[C@@H](Cc2c(-c3c(F)cc(-n4ccnn4)cc3F)nc3cc(C)ccn23)C1 [Compound 141, methyl (S)-2-((2-(2,6-difluoro-4-(1H-1,2,3-triazol-1-yl)phenyl)-7-methylimidazo[1,2-a]pyridin-3-yl)methyl)morpholine-4-carboxylate] | 10 to 50 |  |
| COC(=O)N1CCO[C@@H](Cc2c(-c3c(F)cc(-c4nc(C(C)(C)O)c[nH]4)cc3F)nc3cc(C)ccn23)C1 [Compound 115] |  | 200 to 5000 |
| COC(=O)N1CCO[C@@H](Cc2c(C3CCN(C(C)=O)CC3)nc3cc(C)ccn23)C1 [Compound 30, methyl (S)-2-((2-(1-acetylpiperidin-4-yl)-7-methylimidazo[1,2-a]pyridin-3-yl)methyl)morpholine-4-carboxylate] | 10 to 50 |  |
| COC(=O)N1CCO[C@@H](Cc2c(-c3c(F)cc(NC(=O)CCC(C)(C)O)cc3F)nc3cc(C)ccn23)C1 [Compound 93] | 10 to 50 |  |
| COC(=O)N1CCO[C@@H](Cc2c(-c3c(F)cc(-n4cnc(N)c4)cc3F)nc3cc(C)ccn23)C1 [Compound 111] | 10 to 50 |  |
| COC(=O)N1CCO[C@@H](Cc2c(-c3cc(F)c(S(N)(=O)=O)cc3Cl)nc3cc(C)ccn23)C1 [Compound 180, methyl (S)-2-((2-(2-chloro-5-fluoro-4-sulfamoylphenyl)-7-methylimidazo[1,2-a]pyridin-3-yl)methyl)morpholine-4-carboxylate] | 0.2 |  |
| CNC(=O)c1cc(F)c(-c2nc3cc(C)ncn3c2C[C@H]2CN(C(=O)OC)CCO2)c(F)c1 [Compound 42, methyl (S)-2-((2-(2,6-difluoro-4-(methylcarbamoyl)phenyl)-7-methylimidazo[1,2-c]pyrimidin-3-yl)methyl)morpholine-4-carboxylate] | < 10 |  |
| CNC(=O)Oc1cc(F)c(-c2nc3cc(C)ccn3c2C[C@H]2CN(C(=O)OC)CCO2)c(F)c1 [Compound 36, methyl (S)-2-((2-(2,6-difluoro-4-(methylcarbamoyloxy)phenyl)-7-methylimidazo[1,2-a]pyridin-3-yl)methyl)morpholine-4-carboxylate] |  | 10 to 50 |
| COC(=O)N1CCO[C@@H](Cc2c(-c3c(F)cc(-n4cnc(C#N)c4)cc3F)nc3cc(C)ccn23)C1 [Compound 192, methyl (S)-2-((2-(4-(4-cyano-1H-imidazol-1-yl)-2,6-difluorophenyl)-7-methylimidazo[1,2-a]pyridin-3-yl)methyl)morpholine-4-carboxylate] | 10 to 50 |  |
| COC(=O)N1CCO[C@@H](Cc2c(-c3c(F)cc(-c4ncc(C#N)o4)cc3F)nc3cc(C)ccn23)C1 [Compound 120] | < 10 |  |

| Structure (SMILES) | IC50 [nM] | IC50 [1] [nM] |
| --- | --- | --- |
| CNC(=N)c1cc(F)c(-c2nc3cc(C)ccn3c2C[C@H]2CN(C(=O)OC)CCO2)c(F)c1 [Compound 8, methyl (S)-2-((2-(2,6-difluoro-4-(N-methylcarbamimidoyl)phenyl)-7-methylimidazo[1,2-a]pyridin-3-yl)methyl)morpholine-4-carboxylate] |  | 200 to 5000 |
| CNC(=O)c1cc(F)c(-c2nc3cc(C)ccn3c2CN2CCN(C(=O)OC)CC2)c(F)c1 [Compound 32] |  | 200 to 5000 |
| COC(=O)N1CCO[C@@H](Cc2c(-c3c(F)cc(Nc4ccc(Cl)o4)cc3F)nc3cc(C)ccn23)C1 [Compound 72] | 50 to 200 |  |
| COC(=O)N1CCO[C@@H](Cc2c(-c3c(F)cc(-n4cc[nH]c4=O)cc3F)nc3cc(C)ccn23)C1 [Compound 98] | 10 to 50 |  |
| COC(=O)N1CCO[C@@H](Cc2c(-c3c(F)cc(S(N)(=O)=O)cc3Cl)nc3cc(Cl)ccn23)C1 [Compound 179, methyl (S)-2-((7-chloro-2-(2-chloro-6-fluoro-4-sulfamoylphenyl)imidazo[1,2-a]pyridin-3-yl)methyl)morpholine-4-carboxylate] | 0.4 |  |
| COC(=O)N1CCO[C@@H](Cc2c(-c3c(F)cc(-n4cnc(C5(C(=O)O)CC5)c4)cc3F)nc3cc(C)ccn23)C1 [Compound 113] |  | 200 to 5000 |
| CNC(=O)c1cc(F)c(-c2nc3cc(C)cnc3n2C[C@H]2CN(C(=O)OC)CCO2)c(F)c1 [Compound 94, methyl (S)-2-((2-(2,6-difluoro-4-(methylcarbamoyl)phenyl)-6-methyl-3H-imidazo[4,5-b]pyridin-3-yl)methyl)morpholine-4-carboxylate] | 50 to 200 |  |
| COC(=O)N1CCO[C@@H](Cc2c(-c3c(F)cc(Nc4ccc(F)o4)cc3F)nc3cc(C)ccn23)C1 [Compound 73] | 50 to 200 |  |
| C=CC(=O)Nc1cc(F)c(-c2nc3cc(C)ccn3c2C[C@H]2CN(C(=O)OC)CCO2)c(F)c1 [Compound 87] | 50 to 200 |  |
| COC(=O)N1CCO[C@@H](Cc2c(-c3c(F)cc(-c4nc(C#N)c[nH]4)cc3F)nc3cc(F)ccn23)C1 [Compound 106] | 10 to 50 |  |
| COC(=O)N1CCO[C@@H](Cc2c(-c3c(F)cc(-c4ccon4)cc3F)nc3cc(C)ccn23)C1 [Compound 16, methyl (S)-2-((2-(2,6-difluoro-4-(isoxazol-3-yl)phenyl)-7-methylimidazo[1,2-a]pyridin-3-yl)methyl)morpholine-4-carboxylate] | 10 to 50 |  |
| COC(=O)N1CCO[C@@H](Cc2c(-c3c(F)cc(-n4cc(O)cn4)cc3F)nc3cc(C)ccn23)C1 [Compound 128, methyl (S)-2-((2-(2,6-difluoro-4-(4-hydroxy-1H-pyrazol-1-yl)phenyl)-7-methylimidazo[1,2-a]pyridin-3-yl)methyl)morpholine-4-carboxylate] |  | 200 to 5000 |
| COC(=O)N1CCO[C@@H](Cc2c(-c3c(F)cc(-c4ccc(C(=O)O)cn4)cc3F)nc3cc(C)ccn23)C1 [Compound 145] | 50 to 200 |  |
| COC(=O)N1CCO[C@@H](Cc2c(-c3c(F)cc(-c4nccn4C)cc3F)nc3cc(C)ccn23)C1 [Compound 9, methyl (S)-2-((2-(2,6-difluoro-4-(1-methyl-1H-imidazol-2-yl)phenyl)-7-methylimidazo[1,2-a]pyridin-3-yl)methyl)morpholine-4-carboxylate] |  | 200 to 5000 |
| COC(=O)N1CCO[C@@H](Cc2c(-c3c(F)cc(-c4nc(S(N)(=O)=O)c[nH]4)cc3F)nc3cc(C)ccn23)C1 [Compound 105] | < 10 |  |
| CNC(=O)c1coc(-c2nc3cc(C)ccn3c2C[C@H]2CN(C(=O)OC)CCO2)c1F [Compound 22] |  | 200 to 5000 |
